Measured values published in patent publication US20250381198A1 (Melt Pharmaceuticals, Inc., priority 2024, published 2025).

How the values were obtained:
[1] = Phase 1 crossover relative bioavailability study: plasma pharmacokinetics of midazolam, 1-hydroxymidazolam, ketamine and norketamine
Method: PK analysis was performed using noncompartmental methods in Phoenix WinNonlin® (Version 8.1, Certara, L.P.) in conjunction with the internet-accessible implementation of the Pharsight® Knowledgebase Server™ (PKSO; Version 4.0.4, Certara, L.P). PKSO provides protected and structured storage, audit trails, and version control for study data, analyses, and related files, supporting 21 CFR Part 11 compliance. The analysis was performed in accordance with the Statistical Analysis Plan (Version 1.0, 5 Jan. 2021).
During the PK analysis, concentrations below the limit of quantitation (BLQ) up to the time of the first quantifiable concentration were treated as zero. Embedded (values between 2 quantifiable concentrations) and terminal BLQ concentrations were treated as “missing”. Calculation of the PK characteristics were based on actual elapsed times [h] (relative to time of dose).
All PK analyses were performed on the data from the PK Analysis Population. […] The ANOVA model included factors for sequence, subject within sequence, treatment, and period.

[2] = test system: subjects undergoing cataract extraction with lens replacement (CELR); assay: Phase 2: subjects achieving analgesia response (NPRS < 4); assay type: in vivo, human; conditions: Full Analysis Set; for Subjects achieving analgesia response (observed): Yes: NPRS < 4 at the available four intraoperative timepoints
Method: The number of subjects achieving analgesia response (observed) in the full analysis set was determined. Success in analgesia response was defined as NPRS<4 at the available at the available four intraoperative timepoints and a failure otherwise (e.g., any interoperative pain rescue was assumed to be a failure. Results are provided in TABLE 25. The number of subjects completing the surgery is provided in TABLE 26, and the number of subjects completing the surgery without interruption is provided in TABLE 27. For this measure, subjects completing the surgery without interruption (other than rescue medication) due to pain or anxiety were considered successes. The number of subjects requiring rescue sedative medication and those requiring analgesic medication are provided in TABLES 28 and 29, respectively. For all TABLES 25-29, p-Values between pairs of treatments were calculated and are provided.

[3] = test system: subjects undergoing cataract extraction with lens replacement (CELR); assay: Phase 2: subjects receiving opioid concomitant medication postoperatively; assay type: in vivo, human; conditions: Full Analysis Set; percent of subjects
[4] = test system: subjects undergoing cataract extraction with lens replacement (CELR); assay: Phase 2: subject-rated worst pain during surgery by the numeric pain rating scale; assay type: in vivo, human; conditions: Full Analysis Set; for Worst Pain During Surgery (NPRS), Mean / Worst Pain During Surgery (NPRS), Median: carry forward, MELT-300, midazolam 3 mg, ketamine 50 mg
[5] = test system: subjects undergoing cataract extraction with lens replacement (CELR); assay: Phase 2 MELT-300: subjects achieving procedural sedation (RSS level 2 or 3 without rescue); assay type: in vivo, human; conditions: for Subjects who achieved target sedation: Full analysis set, MELT-300, 3 mg midazolam alone, 50 mg ketamine alone, sublingual; for Subjects achieving procedural sedation: No / Subjects achieving procedural sedation: Yes: Visit 2 (Day 1), Full Analysis Set, single sublingual tablet (MELT-300; midazolam 3 mg; ketamine 50 mg)
Method: Achievement of procedural sedation was evaluated for each subject (see TABLE 20). Success for procedural sedation for this Phase 2 study was defined as achieving target sedation level (Ramsay Sedation Scale (RSS) scale level 2 or 3) at the start of surgery without the need for rescue sedation medication, and no need for intraoperative rescue sedation medication to maintain target sedation level.

healthy adult subjects [6] = assay: Phase 1 safety: adverse events, vital signs, laboratory values, ECG, oral cavity examination, neurocognitive assessment (SPMSQ); assay type: in vivo, human; conditions: for Mean changes from baseline in systolic and diastolic blood pressures: MELT-100 3/25 mg and 6/25 mg, each timepoint
Method: The Investigator evaluated safety using physical and oral examinations, O2 saturation (SpO2), vital sign measurements, clinical laboratory evaluations, electrocardiograms (ECGs), reported or observed adverse events (AEs), and assessments of neurocognitive function. Subjects were monitored for any AEs from the first dose through the end of the study.
All safety analyses were performed on data from the Safety Population. All quantitative safety data were tabulated with descriptive summary statistics, including the following: arithmetic mean, SD, median, minimum value, maximum values, and number of non-missing observations (n).
Frequency counts and percentage were provided for categorical data. Data were summarized by treatment sequence, treatment, and/or overall, as applicable. All observed baseline/predose and postdose values were summarized by treatment when data were available. Additionally, the corresponding change from baseline/predose assessment to each postdose assessment were also summarized by treatment. All tabulations involving change from baseline/predose comparisons included only those subjects with data at both the baseline/predose and postdose assessments.
Adverse events were coded using the Medical Dictionary for Regulatory Activities (MedDRA, version 22.0, or later) terms and summarized by system organ class (SOC) and preferred term (PT) within SOC. The number and percentage of subjects reporting TEAEs were summarized by reported SOC and PT for each treatment and the population overall. TEAEs were also summarized by maximum severity and nearest relationship to study drug, by SOC and PT for each treatment.
A by-subject AE (including treatment-emergent) data listing, including but not limited to verbatim term, SOC, PT, severity, and relationship to study treatment, was provided. Deaths, SAEs, and other significant AEs, including those leading to early termination of study treatments were listed.
Vital signs, clinical laboratory values (hematology, serum chemistry, and urinalysis), and 12-lead ECG parameters were summarized by treatment including any abnormal values flagged.
Physical examination and oral cavity examination data at each evaluation were listed. […] Weight and height were summarized. Neurocognitive assessments for each evaluation were listed.

healthy adult subjects [7] = assay: Phase 1 pharmacodynamics: sedation by Ramsay sedation scale (RSS); assay type: in vivo, human; conditions: for Subjects with RSS score of 2: 5 minutes after administration
Method: Pharmacodynamic parameters included sedation, defined as time to onset of sedation and sedation level, assessed using the Ramsay sedation scale (RSS), and cardiodynamics assessed by QTcF, heart rate, and PR and QRS intervals, and T-wave morphology and U-wave presence, extracted from ECGs collected via Holter monitor from predose through 24 hours postdose.
All pharmacodynamic analyses were performed on data from the Safety Population. The RSS scores were summarized by treatment and by timepoint. Time to onset of sedation was summarized by treatment and presented graphically.

[8] = Treatment D: ketamine IV 18 mg, fasted
[9] = midazolam 3.5 mg IV, ketamine 18 mg IV
[10] = 5-minute postdose timepoint, ketamine 18 mg IV
[11] = Treatment C: midazolam IV 3.5 mg, fasted

CNC1(c2ccccc2Cl)CCCCC1=O (stereo not shown) [Ketamine, 2-(2-chlorophenyl)-2-(methylamino)cyclohexanone]
Ketamine AUCExtrap, mean [1, 8]: 9.64% | Ketamine Clast, mean [1, 8]: 1.99 ng/mL | Ketamine Tlast, mean [1, 8]: 23.7 h | Ketamine Vz, mean [1, 8]: 867 L | clearance ([1]; human, plasma, iv, 18 mg): 998 mL/min | Subjects achieving analgesia response (observed): No [2]: 40 (50.6) n (%) | Subjects achieving analgesia response (observed): Yes [2]: 39 (49.4) n (%) | Received Postoperative Opioid on Day 2-8: No, % [3]: (100.0) % | Received Postoperative Opioid on Day 2-8: Yes, % [3]: (0.0) % | Received Postoperative Opioid on Day 2: No, % [3]: (100.0) % | Received Postoperative Opioid on Day 2: Yes, % [3]: (0.0) % | Worst pain: Mean Difference versus Placebo [4]: −0.33 | Worst Pain During Surgery (NPRS), Mean [4]: 3.7 | Worst Pain During Surgery (NPRS), Median [4]: 4.0 | Subjects who achieved target sedation [5]: 63.3% | Subjects achieving procedural sedation: No [5]: 29 (36.7) n (%) | Subjects achieving procedural sedation: Yes [5]: 50 (63.3) n (%) | Mean changes from baseline in systolic and diastolic blood pressures (healthy adult subjects [6]; [9]): highest at the 10-minute timepoint | Treatment-related AEs of hypertension, number (healthy adult subjects [6]; ketamine 18 mg IV): 3 | Subjects with RSS score of 1 (healthy adult subjects [7]; [10]): 4.0% | Subjects with RSS score of 5 (healthy adult subjects [7]; [10]): 4.0% | Subjects with RSS score of 2 (healthy adult subjects [7]; [9]): 92.0% | Highest proportion of subjects with RSS scores >2 postdose (healthy adult subjects [7]; [9]): ~8%

Cc1ncc2n1-c1ccc(Cl)cc1C(c1ccccc1F)=NC2 [Midazolam, 8-chloro-6-(2-fluorophenyl)-1-methyl-4H-imidazo[1,5-a][1,4]benzodiazepine]
Midazolam AUCExtrap, mean [1, 11]: 5.58% | Midazolam Clast, mean [1, 11]: 0.963 ng/mL | Subjects achieving analgesia response (observed): No [2]: 48 (59.3) n (%) | Subjects achieving analgesia response (observed): Yes [2]: 33 (40.7) n (%) | Received Postoperative Opioid on Day 2-8: No, % [3]: (100.0) % | Received Postoperative Opioid on Day 2-8: Yes, % [3]: (0.0) % | Received Postoperative Opioid on Day 2: No, % [3]: (100.0) % | Received Postoperative Opioid on Day 2: Yes, % [3]: (0.0) % | Worst pain: Mean Difference versus Placebo [4]: 0.05 | Worst Pain During Surgery (NPRS), Mean [4]: 4.0 | Worst Pain During Surgery (NPRS), Median [4]: 4.0 | Worst pain: Mean Difference versus Ketamine ([4]; versus ketamine 50 mg): 0.38 | Subjects who achieved target sedation [5]: 64.2% | Subjects achieving procedural sedation: No [5]: 29 (35.8) n (%) | Subjects achieving procedural sedation: Yes [5]: 52 (64.2) n (%) | PR duration (one subject) (healthy adult subjects [6]; 24 hours after midazolam 3.5 mg IV in Period 4, not considered clinically significant): abnormal | Mean changes from baseline in systolic and diastolic blood pressures (healthy adult subjects [6]; [9]): minimal and similar | Subjects with treatment-related AEs (healthy adult subjects [6]; midazolam 3.5 mg IV): 8.3% | Treatment-related AEs, number of events (healthy adult subjects [6]; midazolam 3.5 mg IV): 2 events | Mean change from baseline in pulse oximetry (healthy adult subjects [6]; midazolam 3.5 mg IV at 10-minute postdose, MELT-100 6/50 mg at 30-minute postdose): small mean decrease from baseline | Subjects with RSS scores of 3 (healthy adult subjects [7]; 5-minute postdose timepoint, midazolam 3.5 mg IV): 8.3% | Subjects with RSS score of 2 (healthy adult subjects [7]; [9]): 91.7% | Highest proportion of subjects with RSS scores >2 postdose (healthy adult subjects [7]; [9]): ~54%
